Experimental data taken from article PMC4623676, “Methylation mediated by an anthocyanin, O-methyltransferase, is involved in purple flower coloration in Paeonia” (Journal of Experimental Botany, 2015).

Legend:
PtAOMT = test system: T1, PtAOMT; experiment: HPLC of methylated product; assay type: biochemical, Paeonia tenuifolia; details: 200 μM SAM, 1.0 mM MgCl2, 14 mM β-mercaptoethanol, 100 mM Tris/HCl pH 7.5, 35 °C; MBP fusion
T1 construct: gene AOMT; dimer in solution; Arg-87; Gly-13, Thr-85, Thr-205
Source text: HPLC of methylated product on PtAOMT | K m of PtAOMT-R87L for Cy3G was slightly lower than its K m for Cy3G5G

PsAOMT = test system: T2, PsAOMT; experiment: HPLC of methylated product; assay type: biochemical, Paeonia suffruticosa; details: 200 μM SAM, 1.0 mM MgCl2, 14 mM β-mercaptoethanol, 100 mM Tris/HCl pH 7.5, 35 °C; MBP fusion; read-out: PsAOMT / K m
T2 construct: gene AOMT; dimer in solution; Leu-87; differs from PtAOMT at positions 13 (E), 85 (A), 87 (L), 205 (R)
Source text: HPLC of methylated product on PsAOMT

Km (PtAOMT) [µM]	Km (PsAOMT) [µM]	SMILES
3.53 ± 0.31	1.76	OC[C@H]1O[C@@H](Oc2cc3c(O)cc(O)cc3[o+]c2-c2ccc(O)c(O)c2)[C@H](O)[C@@H](O)[C@@H]1O [Cy3G, Cyanidin 3-O-glucoside]
	146	O=c1cc(-c2ccc(O)c(O)c2)oc2cc(O[C@@H]3O[C@H](CO)[C@@H](O)[C@H](O)[C@H]3O)cc(O)c12 [Lu7G, Luteolin 7-O-glucoside]
	12.3	C[C@@H]1O[C@@H](OC[C@H]2O[C@@H](Oc3c(-c4ccc(O)c(O)c4)oc4cc(O)cc(O)c4c3=O)[C@H](O)[C@@H](O)[C@@H]2O)[C@H](O)[C@H](O)[C@H]1O [Qu3R, Quercetin 3-O-rutinoside]
	4.11	OC[C@H]1O[C@@H](Oc2cc3c(O)cc(O)cc3[o+]c2-c2cc(O)c(O)c(O)c2)[C@H](O)[C@@H](O)[C@@H]1O [Dp3G, Delphinidin 3-O-glucoside]
8.51 ± 1.39	1.06	OC[C@H]1O[C@@H](Oc2cc3c(O[C@@H]4O[C@H](CO)[C@@H](O)[C@H](O)[C@H]4O)cc(O)cc3[o+]c2-c2ccc(O)c(O)c2)[C@H](O)[C@@H](O)[C@@H]1O [Cy3G5G, Cyanidin 3,5-di-O-glucoside]

SMILES	Km (PtAOMT) [µM]	Km (PsAOMT) [µM]
O=c1c(O)c(-c2ccc(O)c(O)c2)oc2cc(O)cc(O)c12 [Quercetin]		4.33
